# Columns and labels:
# Salmonella typhi = assay: Antibacterial activity against Salmonella typhi MTCC 98 assessed as zone of inhibition at 25 to 150 ug/ml measured after 24 hrs by agar well diffusion method; type: functional, Salmonella enterica subsp. enterica serovar Typhi
# Escherichia coli [1] = assay: Antibacterial activity against Escherichia coli MTCC 443 assessed as zone of inhibition at 25 to 150 ug/ml measured after 24 hrs by agar well diffusion method; type: functional
# Bacillus subtilis [2] = assay: Antibacterial activity against Bacillus subtilis MTCC 441 assessed as zone of inhibition at 25 to 150 ug/ml measured after 24 hrs by agar well diffusion method; type: functional
# Staphylococcus aureus [3] = assay: Antibacterial activity against Staphylococcus aureus MTCC 96 assessed as zone of inhibition at 25 to 150 ug/ml measured after 24 hrs by agar well diffusion method; type: functional
# Aspergillus niger = assay: Antifungal activity against Aspergillus niger assessed as zone of inhibition at 25 to 150 ug/ml measured after 24 to 48 hrs by agar well diffusion method; type: functional
# Candida albicans [4] = assay: Antifungal activity against Candida albicans MTCC 227 assessed as zone of inhibition at 25 to 150 ug/ml measured after 24 to 48 hrs by agar well diffusion method; type: functional
# Penicillium chrysogenum = assay: Antifungal activity against Penicillium chrysogenum MTCC 160 assessed as zone of inhibition at 25 to 150 ug/ml measured after 24 to 48 hrs by agar well diffusion method; type: functional
# Staphylococcus aureus [5] = assay: Antibacterial activity against Staphylococcus aureus NCTC 7447 assessed as zone of inhibition at 1 mg/ml measured after 24 hrs by agar diffusion method; type: functional; conditions: NCTC 7447, 24 h, read-out: IZ
# Bacillus subtilis [6] = assay: Antibacterial activity against Bacillus subtilis NCTC 10400 assessed as zone of inhibition at 1 mg/ml measured after 24 hrs by agar diffusion method; type: functional; conditions: NCTC 10400, 24 h, read-out: IZ
# Sarcina = assay: Antibacterial activity against Sarcina sp. NCTC 1117 assessed as zone of inhibition at 1 mg/ml measured after 24 hrs by agar diffusion method; type: functional; conditions: NCTC 1117, 24 h, read-out: IZ
# Escherichia coli [7] = assay: Antibacterial activity against Escherichia coli NCTC 10416 assessed as zone of inhibition at 1 mg/ml measured after 24 hrs by agar diffusion method; type: functional; conditions: NCTC 10416, 24 h, read-out: IZ
# Serratia marcescens = assay: Antibacterial activity against Serratia marcescens IMRU 70 assessed as zone of inhibition at 1 mg/ml measured after 24 hrs by agar diffusion method; type: functional; conditions: IMRU 70, 24 h, read-out: IZ
# Translocator protein [8] = molecular target: T1, Translocator protein (Rattus norvegicus, UniProt P16257); assay: Displacement of [3H]PK11195 from PBZR in rat kidney mitochondrial membranes measured after 90 mins by liquid scintillation counting; type: cell membranes
# T1 sequence (P16257 whole entry, looked up): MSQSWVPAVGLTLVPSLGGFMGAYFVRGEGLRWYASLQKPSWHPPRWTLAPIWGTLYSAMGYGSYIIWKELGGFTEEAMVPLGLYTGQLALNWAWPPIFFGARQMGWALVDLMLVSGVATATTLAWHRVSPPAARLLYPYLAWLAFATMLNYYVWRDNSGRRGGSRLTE
# Translocator protein [9] = molecular target: T1, Translocator protein; assay: Displacement of [3H]Ro5-4864 from PBZR in rat kidney mitochondrial membranes measured after 90 mins by liquid scintillation counting; type: cell membranes
# Ehrlich = assay: Cytotoxicity against […] EAC cells by trypan blue staining based microscopic analysis; type: functional, cell-based, Mus musculus
# Aspergillus fumigatus = assay: Antifungal activity against Aspergillus fumigatus RCMB 002006 assessed as zone of inhibition at 30 ug/ml; type: functional; conditions: read-out: IZ
# Geotrichum candidum = assay: Antifungal activity against Geotrichum candidum 052008 assessed as zone of inhibition at 30 ug/ml; type: functional; conditions: read-out: IZ
# [10] = system: Syncephalastrum racemosum; assay: Antifungal activity against Syncephalastrum racemosum 005004 assessed as zone of inhibition at 30 ug/ml; type: functional; conditions: read-out: IZ
# Candida albicans [11] = assay: Antifungal activity against Candida albicans RCMB 0005003 assessed as zone of inhibition at 30 ug/ml; type: functional; conditions: read-out: IZ
# Staphylococcus aureus [12] = assay: Antibacterial activity against Staphylococcus aureus measured after 18 hrs by agar dilution method; type: functional
# Bacillus subtilis [13] = assay: Antibacterial activity against Bacillus subtilis measured after 18 hrs by agar dilution method; type: functional
# Escherichia coli [14] = assay: Antibacterial activity against Escherichia coli measured after 18 hrs by agar dilution method; type: functional
# Pseudomonas aeruginosa [15] = assay: Antibacterial activity against Pseudomonas aeruginosa measured after 18 hrs by agar dilution method; type: functional
# Candida albicans [16] = assay: Antifungal activity against Candida albicans measured after 18 hrs by agar dilution method; type: functional
# Staphylococcus aureus [17] = assay: Antibacterial activity against Staphylococcus aureus RCMB 000108 assessed as zone of inhibition at 30 ug/ml; type: functional; conditions: read-out: IZ
# Bacillus subtilis [18] = assay: Antibacterial activity against Bacillus subtilis RCMB 000109 assessed as zone of inhibition at 30 ug/ml; type: functional; conditions: read-out: IZ
# Pseudomonas aeruginosa [19] = assay: Antibacterial activity against Pseudomonas aeruginosa RCMB 000103 assessed as zone of inhibition at 30 ug/ml; type: functional; conditions: read-out: IZ
# Escherichia coli [20] = assay: Antibacterial activity against Escherichia coli RCMB 000106 assessed as zone of inhibition at 30 ug/ml; type: functional; conditions: read-out: IZ
# Aspergillus flavus = assay: Antifungal activity against Aspergillus flavus MTCC 3008 assessed as zone of inhibition at 25 to 150 ug/ml measured after 24 to 48 hrs by agar well diffusion method; type: functional
smiles,measurement,setting,value
Cc1nn(-c2ccccc2)c(Cl)c1-c1cc(-c2cc(Cl)ccc2O)nc2c(/N=N/c3ccc(Cl)cc3)c(N)nn12,inhibition zone (IZ),Salmonella typhi,15 mm
same,inhibition zone (IZ),Escherichia coli [1],18 mm
same,inhibition zone (IZ),Bacillus subtilis [2],12 mm
same,inhibition zone (IZ),Staphylococcus aureus [3],15 mm
same,inhibition zone (IZ),Aspergillus niger,20 mm
same,inhibition zone (IZ),Candida albicans [4],11 mm
same,inhibition zone (IZ),Penicillium chrysogenum,13 mm
COc1ccccc1NS(=O)(=O)c1ccc(/N=N/c2c(=O)[nH]n3cc(C#N)c(N)nc23)cc1,zone of inhibition at 1000 µg/mL,Staphylococcus aureus [5],9 to 11 mm
same,zone of inhibition at 1000 µg/mL,Bacillus subtilis [6],15 to 18 mm
same,zone of inhibition at 1000 µg/mL,Sarcina,12 to 14 mm
same,zone of inhibition at 1000 µg/mL,Escherichia coli [7],12 to 14 mm
same,zone of inhibition at 1000 µg/mL,Serratia marcescens,12 to 14 mm
COc1ccc(NS(=O)(=O)c2ccc(/N=N/c3c(=O)[nH]n4c(-c5ncccn5)c(C#N)c(N)nc34)cc2)cc1,zone of inhibition at 1000 µg/mL,Staphylococcus aureus [5],12 to 14 mm
same,zone of inhibition at 1000 µg/mL,Bacillus subtilis [6],9 to 11 mm
same,zone of inhibition at 1000 µg/mL,Sarcina,15 to 18 mm
same,zone of inhibition at 1000 µg/mL,Escherichia coli [7],15 to 18 mm
same,zone of inhibition at 1000 µg/mL,Serratia marcescens,15 to 18 mm
CCC(CC)C(=O)Cc1c(-c2ccc(Cl)cc2)nn2c(C)cc(-c3ccccc3)nc12,Ki,Translocator protein [8],3.4 nM
same,Ki,Translocator protein [9],2.7 nM
Cc1nn2c(-c3ccccc3)ccnc2c1/N=N/c1c(C)n(C)n(-c2ccccc2)c1=O,ED25,Ehrlich,70.2 µg/mL
same,ED100,Ehrlich,99.8 µg/mL
same,IC50,"Ehrlich; Mus musculus, Ehrlich",3.13 µg/mL
same,EC50,"Ehrlich; Mus musculus, Ehrlich, read-out: ED50 (the source's name)",87.1 µg/mL
CCC(CC)C(=O)Cc1c(-c2ccc(Cl)cc2)nn2c(C)cc(C)nc12,Ki,Translocator protein [8],2.4 nM
same,Ki,Translocator protein [9],1.4 nM
CCC(C)n1ncn(-c2ccc(N3CCN(c4ccc(OCC5COC(Cn6cncn6)(c6ccc(Cl)cc6Cl)O5)cc4)CC3)cc2)c1=O (stereo not drawn) [ITRACONAZOLE],zone of inhibition at 30 µg/mL,Aspergillus fumigatus,27.4 mm
same,zone of inhibition at 30 µg/mL,Geotrichum candidum,24.2 mm
same,zone of inhibition at 30 µg/mL,[10],23.9 mm
same,zone of inhibition at 30 µg/mL,Candida albicans [11],25.2 mm
OC(Cn1cncn1)(Cn1cncn1)c1ccc(F)cc1F [FLUCONAZOLE],MIC,Staphylococcus aureus [12],≥ 800 µg/mL
same,MIC,Bacillus subtilis [13],≥ 800 µg/mL
same,MIC,Escherichia coli [14],≥ 800 µg/mL
same,MIC,Pseudomonas aeruginosa [15],≥ 800 µg/mL
same,MIC,Candida albicans [16],≤ 25 µg/mL
COc1ccc(NS(=O)(=O)c2ccc(/N=N/c3c(=O)[nH]n4c(-c5nccc(C)n5)c(C#N)c(N)nc34)cc2)cc1,zone of inhibition at 1000 µg/mL,Staphylococcus aureus [5],12 to 14 mm
same,zone of inhibition at 1000 µg/mL,Bacillus subtilis [6],9 to 11 mm
same,zone of inhibition at 1000 µg/mL,Sarcina,15 to 18 mm
same,zone of inhibition at 1000 µg/mL,Escherichia coli [7],12 to 14 mm
same,zone of inhibition at 1000 µg/mL,Serratia marcescens,15 to 18 mm
CC1(C)S[C@@H]2[C@H](NC(=O)Cc3ccccc3)C(=O)N2[C@H]1C(=O)O [PENICILLIN G],zone of inhibition at 30 µg/mL,Staphylococcus aureus [17],30.1 mm
same,zone of inhibition at 30 µg/mL,Bacillus subtilis [18],31.6 mm
same,zone of inhibition at 30 µg/mL,Pseudomonas aeruginosa [19],28.3 mm
same,zone of inhibition at 30 µg/mL,Escherichia coli [20],33.1 mm
Clc1ccccc1C(c1ccccc1)(c1ccccc1)n1ccnc1 [CLOTRIMAZOLE],zone of inhibition at 30 µg/mL,Aspergillus fumigatus,26.3 mm
same,zone of inhibition at 30 µg/mL,Geotrichum candidum,23.2 mm
same,zone of inhibition at 30 µg/mL,[10],21.4 mm
same,zone of inhibition at 30 µg/mL,Candida albicans [11],20.8 mm
CN[C@@H]1[C@H](O[C@H]2[C@H](O[C@H]3[C@H](O)[C@@H](O)[C@H](N=C(N)N)[C@@H](O)[C@@H]3N=C(N)N)O[C@@H](C)[C@]2(O)C=O)O[C@@H](CO)[C@H](O)[C@H]1O [STREPTOMYCIN],zone of inhibition at 30 µg/mL,Staphylococcus aureus [17],28.1 mm
same,zone of inhibition at 30 µg/mL,Bacillus subtilis [18],29.7 mm
same,zone of inhibition at 30 µg/mL,Pseudomonas aeruginosa [19],25.2 mm
same,zone of inhibition at 30 µg/mL,Escherichia coli [20],29.7 mm
Cc1ccc(-c2cc(-c3c(C)nn(-c4ccccc4)c3Cl)n3nc(N)c(/N=N/c4ccc(Cl)cc4)c3n2)c(O)c1Br,inhibition zone (IZ),Salmonella typhi,30 mm
same,inhibition zone (IZ),Escherichia coli [1],19 mm
same,inhibition zone (IZ),Staphylococcus aureus [3],10 mm
same,inhibition zone (IZ),Aspergillus niger,14 mm
same,inhibition zone (IZ),Aspergillus flavus,17 mm
same,inhibition zone (IZ),Candida albicans [4],15 mm
same,inhibition zone (IZ),Penicillium chrysogenum,16 mm
Cc1nc(-c2ccccc2)sc1-c1ccn2ncc(-c3ccccc3)c2n1,MIC,Staphylococcus aureus [12],≥ 800 µg/mL
same,MIC,Bacillus subtilis [13],≥ 400 µg/mL
same,MIC,Escherichia coli [14],≥ 800 µg/mL
same,MIC,Pseudomonas aeruginosa [15],≥ 400 µg/mL
same,MIC,Candida albicans [16],≥ 400 µg/mL
Cc1nc(-c2ccccc2)sc1-c1ccn2nc(C)c(-c3ccccc3)c2n1,MIC,Staphylococcus aureus [12],≥ 800 µg/mL
same,MIC,Bacillus subtilis [13],≥ 400 µg/mL
same,MIC,Escherichia coli [14],≥ 400 µg/mL
same,MIC,Pseudomonas aeruginosa [15],≥ 800 µg/mL
same,MIC,Candida albicans [16],≥ 400 µg/mL

# Reference: ChEMBL document CHEMBL3994587, “An insight on synthetic and medicinal aspects of pyrazolo[1,5-a]pyrimidine scaffold” (Eur J Med Chem, 2017)
